From ChEMBL document CHEMBL1149841, “Synaptosides A and A1, triterpene glycosides from the sea cucumber Synapta maculata containing 3-O-methylglucuronic acid and their cytotoxic activity against tumor cells” (J Nat Prod, 2008) come the findings set out here.

For assay [1], the system named is HeLa. Kind of assay: Cytotoxicity against human HeLa cells after 12 hrs at 14.1 ug/ml by MTS reduction assay. It counts as functional, cell-based. For orientation: Tetrazolium assays rely on reduction of a dye to a coloured formazan, in cell work by metabolically active cells.
Assay [2] deals with HeLa. Kind of assay: Cytotoxicity against human HeLa cells after 12 hrs by MTS reduction assay. It counts as functional, cell-based.

Each structure is given as a SMILES string. The source made the active and inactive calls. The calls are words filed in the database; no cut-off is given here.

For the compound `CO[C@@H]1[C@@H](O)[C@H](O[C@@H]2[C@@H](O)[C@H](O[C@H]3[C@H](O)[C@@H](O)[C@H](O[C@H]4[C@H](O[C@H]5CC[C@]6(C)C7=C(C(=O)C[C@H]6C5(C)C)[C@]5(C)CC[C@H]6[C@]5(CC7)C(=O)O[C@@]6(C)CC(=O)CC(C)C)OC[C@@H](O[C@@H]5O[C@H](COS(=O)(=O)O)[C@@H](O)[C@H](O)[C@H]5O)[C@@H]4O)O[C@@H]3C)O[C@H](CO)[C@H]2O)O[C@H](C(=O)O)[C@H]1O`, the result with HeLa [1] was inactive.

Compound `CO[C@@H]1[C@@H](O)[C@H](O[C@@H]2[C@@H](O)[C@H](O[C@H]3[C@H](O)[C@@H](O)[C@H](O[C@H]4[C@H](O[C@H]5CC[C@]6(C)[C@@H]7CC[C@]89C(=O)O[C@@](C)(CC(=O)CC(C)C)[C@H]8CC[C@@]9(C)C7=CC[C@H]6C5(C)C)OC[C@@H](O[C@@H]5O[C@H](COS(=O)(=O)[O-])[C@@H](O)[C@H](O)[C@H]5O)[C@@H]4O)O[C@@H]3C)O[C@H](CO)[C@H]2O)O[C@H](C(=O)[O-])[C@H]1O.[Na+].[Na+]` [SYNAPTOSIDE A] gave a half-inhibitory concentration (IC50) in the assay with HeLa [2] of 8.6 µg/mL.

As a reminder, the IC50 is the concentration at which inhibition is half-maximal. Higher therefore signals weaker potency.
